Columns and labels:
[1] = system: NCI-H23 cells (KRAS G12C mutant cell line); assay: Proliferation experiment of NCI-H23 cells (Cell Titer-Glo); type: cell-based; conditions: Homo sapiens, 72 hours, read-out: Test Example 2 IC50
Description: Human lung cancer cell line NCI-H23 (ATCC, CRL-5800) was a KRAS G12C mutant cell line.
(§1) According to the solution described in Cell Titer-Glo Luminescent cell Viability Assay (Promega catalog number #G7570) of Promega Corporation, the number of living cells in the culture was detected. 90 μL of cells (8,000 cells/well) were cultured in a growth medium in a Corning black transparent bottom 96-well plate and were cultured overnight in a 5% CO2 humidified incubator at 37° C. The compound diluted serially in 100% DMSO was added to the cells by a pipette, and the cells were cultured for another 72 hours. 100 μL of the well-mixed Cell Titer-Glo reagent was added to the cells in the 96-well culture plate to lyse the cells and gently mixed. Subsequently, […] was detected on an Envision microplate detector, and the data of each compound was obtained. Finally, the data was input into a suitable software package (such as Prism) for curve fitting analysis.

[2] = system: NCI-H358 cells (KRAS G12C mutant cell line); assay: Proliferation experiment of NCI-H358 cells (Cell Titer-Glo); type: cell-based; conditions: Homo sapiens, 72 hours, read-out: Test Example 1 IC50
Description: as §1

[3] = molecular target: Ba/F3 (KRAS-G12C-H95Q) cells (Homo sapiens, UniProt P01116, G12C/H95Q, cells depend on it); assay: Proliferation experiment of Ba/F3 (KRAS-G12C-H95Q) cells; type: cell-based; conditions: 72 hours, Cell Titer-Glo, read-out: Test Example 4 IC50
Description: Engineered cell strain Ba/F3 (KRAS-G12C-H95Q) was a cell strain constructed by the inventors according to the methods described in Warmuth M. et al, Curr Opin Oncol. […] The cells were grown at 37° C. in a humidified incubator with […].
as §1, with “(3,000” for “(8,000”

[4] = molecular target: Ba/F3 (KRAS-G12C-R68S) cells (Homo sapiens, UniProt P01116, G12C/R68S, cells depend on it); assay: Proliferation experiment of Ba/F3 (KRAS-G12C-R68S) cells; type: cell-based; conditions: 72 hours, Cell Titer-Glo, read-out: Test Example 5 IC50
Description: Engineered cell strain Ba/F3 (KRAS-G12C-R68S) was a cell strain constructed by the inventors according to the methods described in Warmuth M. et al, Curr Opin Oncol. […] The cells were grown at 37° C. in a humidified incubator with 5% CO2.
as §1, with “(3,000” for “(8,000”

[5] = In vitro human liver microsome stability experiment; type: in vitro ADME; conditions: human liver microsomes; for half-life / microsomal CLint: 1 mg/mL microsome protein, NADPH, 37° C.; for microsomal CLint: read-out: CLint(mic); for CLint scaled: scaled to liver
Description: Eight 96-well incubation plates were prepared, named [NT], Blank60, and NCF60, respectively. […] No compound to be tested or control compound was added to the Blank60 plate and samples were taken after 60 minutes of incubation. The NCF60 plate, in which a potassium phosphate buffer was used instead of an NADPH regeneration system solution (Sigma, N0505), was incubated for 60 minutes. […] Only the working solution of microsomes was added to the Blank60 plate, and the incubation plates Blank60, T5, T15, T30, T45, and T60 except TO and NCF60 were then placed in a water bath at 37° C. for pre-incubation for about 10 minutes. To the TO plate sample, 600 μL of a stop solution (acetonitrile:methanol (95:5, v/v) solution containing 100 ng/mL tolbutamide (Sigma, T0891)) was added first, and then an NADPH regeneration system working solution was added. 98 μL of a potassium phosphate buffer was added to each well of the NCF60 plate and incubated for 60 minutes. After the pre-incubation in the incubation plates Blank60, T5, T15, T30, T45, and T60 was complete, 98 μL of the NADPH regeneration system working solution was added to each sample well to initiate the reaction. After an appropriate incubation time (such as 5, 15, 30, 45, and 60 minutes), 600 μL of the stop solution was added to each sample well and control sample well in the Blank60, […] the reaction. All the sample plates were shaken evenly and centrifuged at 3220×g for 20 minutes. 200 μL of each test sample supernatant was taken and diluted into 200 μL of an aqueous solution containing 0.3% formic acid for LC-MS/MS analysis, and 100 μL of the control sample supernatant was taken and diluted into 300 μL of pure water for LC-MS/MS analysis. Calculations were carried out according to the following formulas: […]

[6] = molecular target: Ba/F3 (KRAS-G12C-Q99L) cells (Homo sapiens, UniProt P01116, G12C/Q99L, cells depend on it); assay: Proliferation experiment of Ba/F3 (KRAS-G12C-Q99L) cells; type: cell-based; conditions: 72 hours, Cell Titer-Glo, read-out: Test Example 6 IC50
Description: Engineered cell strain Ba/F3 (KRAS-G12C-Q99L) was a cell strain constructed by the inventors according to the methods described in Warmuth M. et al, Curr Opin Oncol. […] The cells were grown at 37° C. in a humidified incubator with 5% CO2.
as §1, with “(3,000” for “(8,000”

[7] = molecular target: Ba/F3 (KRAS-G12C-Y96C) cells (Homo sapiens, UniProt P01116, G12C/Y96C, cells depend on it); assay: Proliferation experiment of Ba/F3 (KRAS-G12C-Y96C) cells; type: cell-based; conditions: 72 hours, Cell Titer-Glo, read-out: Test Example 3 IC50
Description: Engineered cell strain Ba/F3 (KRAS-G12C-Y96C) was a cell strain constructed by the inventors according to the methods described in Warmuth M. et al, Curr Opin Oncol. […] The cells were grown at 37° C. in a humidified incubator with […].
as §1, with “(3,000” for “(8,000”, “[…]” for “5%”

Chain of Ba/F3 (KRAS-G12C-H95Q) cells (P01116 whole entry G12C/H95Q): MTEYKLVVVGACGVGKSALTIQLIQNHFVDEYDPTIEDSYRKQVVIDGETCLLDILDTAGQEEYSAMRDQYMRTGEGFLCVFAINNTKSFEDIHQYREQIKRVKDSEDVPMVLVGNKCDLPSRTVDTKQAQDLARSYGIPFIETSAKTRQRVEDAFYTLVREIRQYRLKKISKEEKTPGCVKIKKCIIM
Chain of Ba/F3 (KRAS-G12C-Y96C) cells (P01116 whole entry G12C/Y96C): as the sequence (P01116 whole entry G12C/H95Q) above, with Q95H, Y96C counted along it
Chain of Ba/F3 (KRAS-G12C-Q99L) cells (P01116 whole entry G12C/Q99L): as the sequence (P01116 whole entry G12C/H95Q) above, with Q95H, Q99L counted along it
Chain of Ba/F3 (KRAS-G12C-R68S) cells (P01116 whole entry G12C/R68S): as the sequence (P01116 whole entry G12C/H95Q) above, with R68S, Q95H counted along it

**Q.** Which IC50 [1] does the source give for C#Cc1cccc2cc(O)cc(-c3c(F)cc4c(N5CCN(C(=O)C(=C)F)[C@@H](CC#N)C5)nc(OCC56CCCN5CCC6)nc4c3F)c12 [Compound 7A, 2-((2S)-4-(7-(8-ethynyl-3-hydroxynaphth-1-yl)-6,8-difluoro-2-((tetrahydro-1H-pyrrolizin-7a(5H)-yl)methoxy)quinazolin-4-yl)-1-(2-fluoroacryloyl)piperazin-2-yl)acetonitrile] here?
**A.** The IC50 was 0.6 nM.

**Q.** What about the IC50 [2] of the same compound?
**A.** The IC50 was 0.62 nM.

**Q.** What about the GI50 [3] of the same compound?
**A.** The GI50 was 16.8 nM.

**Q.** And the GI50 [4]?
**A.** The GI50 was 34.6 nM.

**Q.** What about the half-life [5] of the same compound?
**A.** Its half-life is 38.4 min.

**Q.** What about the microsomal CLint [5] of the same compound?
**A.** Its microsomal CLint is 36.1 µL/min/mg.

**Q.** What about the CLint scaled [5] of the same compound?
**A.** Its CLint scaled is 32.5 mL/min/kg.

**Q.** What about the GI50 [6] of the same compound?
**A.** Its GI50 is 9.03 nM.

**Q.** And the GI50 [7]?
**A.** Its GI50 is 5.28 nM.

**Q.** For C#Cc1cccc2cc(O)cc(-c3c(F)cc4c(N5CCN(C(=O)C(=C)F)[C@@H](CC#N)C5)nc(OC[C@@]56CCCN5C[C@H](F)C6)nc4c3F)c12 [Compound 8A, 2-((2S)-4-(7-(8-ethynyl-3-hydroxynaphth-1-yl)-6,8-difluoro-2-(((2R,7aS)-2-fluorotetrahydro-1H-pyrrolizin-7a(5H)-yl)methoxy)quinazolin-4-yl)-1-(2-fluoroacryloyl)piperazin-2-yl)acetonitrile], which IC50 [1] is on record?
**A.** The IC50 was 0.58 nM.

**Q.** And the IC50 [2]?
**A.** The IC50 was 0.24 nM.

**Q.** What about the GI50 [3] of the same compound?
**A.** The GI50 was 17.8 nM.

**Q.** What about the GI50 [4] of the same compound?
**A.** Its GI50 is 33.3 nM.

**Q.** What about the half-life [5] of the same compound?
**A.** Its half-life is 26.7 min.

**Q.** And the microsomal CLint [5]?
**A.** Its microsomal CLint is 53 µL/min/mg.

**Q.** And the CLint scaled [5]?
**A.** The CLint scaled was 49.7 mL/min/kg.

**Q.** And the GI50 [6]?
**A.** The GI50 was 11.6 nM.

**Q.** And the GI50 [7]?
**A.** The GI50 was 3.44 nM.

**Q.** Which IC50 [1] does the source give for C#Cc1cccc2cccc(-c3ccc4c(N5CCN(C(=O)C(=C)F)[C@@H](CC#N)C5)nc(OCC56CCCN5CCC6)nc4c3F)c12 [Compound 11, (S)-2-(4-(7-(8-ethynylnaphth-1-yl)-8-fluoro-2-((tetrahydro-1H-pyrrolizin-7a(5H)-yl)methoxy)quinazolin-4-yl)-1-(2-fluoroacryloyl)piperazin-2-yl)acetonitrile] here?
**A.** Its IC50 is 0.86 nM.

**Q.** And the IC50 [2]?
**A.** Its IC50 is 0.79 nM.

**Q.** And the GI50 [3]?
**A.** The GI50 was 62.6 nM.

**Q.** And the GI50 [4]?
**A.** The GI50 was 69.4 nM.

**Q.** What about the half-life [5] of the same compound?
**A.** Its half-life is 38.8 min.

**Q.** And the microsomal CLint [5]?
**A.** Its microsomal CLint is 35.7 µL/min/mg.

**Q.** And the CLint scaled [5]?
**A.** The CLint scaled was 32.1 mL/min/kg.

**Q.** And the GI50 [6]?
**A.** Its GI50 is 56.7 nM.

**Q.** What about the GI50 [7] of the same compound?
**A.** The GI50 was 25.7 nM.

**Q.** What does the source list for C#Cc1c(F)ccc2cc(O)cc(-c3ccc4c(N5CCN(C(=O)C(=C)F)[C@@H](CC#N)C5)nc(OCC56CCCN5CCC6)nc4c3F)c12 [Compound 12, (S)-2-(4-(7-(8-ethynyl-7-fluoro-3-hydroxynaphth-1-yl)-8-fluoro-2-((tetrahydro-1H-pyrrolizin-7a(5H)-yl)methoxy)quinazolin-4-yl)-1-(2-fluoroacryloyl)piperazin-2-yl)acetonitrile]?
**A.** IC50 [1]: 1.02 nM; IC50 [2]: 0.66 nM; GI50 [3]: 41.6 nM; GI50 [4]: 51.4 nM; half-life [5]: 30.9 min; microsomal CLint [5]: 56.2 µL/min/mg; CLint scaled [5]: 49.6 mL/min/kg; GI50 [6]: 24.4 nM; GI50 [7]: 26.2 nM

**Q.** With C#Cc1cccc2cccc(-c3c(F)cc4c(N5CCN(C(=O)C(=C)F)[C@@H](CC#N)C5)nc(OCC56CCCN5CCC6)nc4c3F)c12 [Compound 18B, 2-((2S)-4-(7-(8-ethynylnaphth-1-yl)-6,8-difluoro-2-((tetrahydro-1H-pyrrolizin-7a(5H)-yl)methoxy)quinazolin-4-yl)-1-(2-fluoroacryloyl)piperazin-2-yl)acetonitrile] as the compound, how does the IC50 [1] read?
**A.** The IC50 was 0.68 nM.

**Q.** What about the IC50 [2] of the same compound?
**A.** Its IC50 is 0.5 nM.

**Q.** What about the GI50 [3] of the same compound?
**A.** Its GI50 is 12.8 nM.

**Q.** What about the GI50 [4] of the same compound?
**A.** The GI50 was 29.9 nM.

**Q.** And the half-life [5]?
**A.** Its half-life is 44.2 min.

**Q.** What about the microsomal CLint [5] of the same compound?
**A.** Its microsomal CLint is 35.6 µL/min/mg.

**Q.** And the CLint scaled [5]?
**A.** The CLint scaled was 33 mL/min/kg.

**Q.** And the GI50 [6]?
**A.** Its GI50 is 8.92 nM.

**Q.** What about the GI50 [7] of the same compound?
**A.** Its GI50 is 4.89 nM.

**Q.** For C=C(F)C(=O)N1CCN(c2nc(OCC34CCCN3CCC4)nc3c(F)c(-c4cc(O)cc5cccc(Cl)c45)c(F)cc23)C[C@@H]1CC#N [Compound 22A, 2-((2S)-4-(7-(8-chloro-3-hydroxynaphth-1-yl)-6,8-difluoro-2-((tetrahydro-1H-pyrrolizin-7a(5H)-yl)methoxy)quinazolin-4-yl)-1-(2-fluoroacryloyl)piperazin-2-yl)acetonitrile], which IC50 [1] is on record?
**A.** Its IC50 is 0.76 nM.

**Q.** And the IC50 [2]?
**A.** Its IC50 is 0.47 nM.

**Q.** What about the GI50 [3] of the same compound?
**A.** The GI50 was 23.9 nM.

**Q.** And the GI50 [4]?
**A.** The GI50 was 34.1 nM.

**Q.** What about the half-life [5] of the same compound?
**A.** Its half-life is 39.2 min.

**Q.** What about the microsomal CLint [5] of the same compound?
**A.** Its microsomal CLint is 35.6 µL/min/mg.

**Q.** And the CLint scaled [5]?
**A.** The CLint scaled was 33 mL/min/kg.

**Q.** What about the GI50 [6] of the same compound?
**A.** The GI50 was 11.1 nM.

**Q.** And the GI50 [7]?
**A.** Its GI50 is 7.23 nM.

**Q.** Which IC50 [1] does the source give for C#Cc1c(F)ccc2cc(O)cc(-c3c(F)cc4c(N5CCN(C(=O)C(=C)F)[C@@H](CC#N)C5)nc(OC[C@@]56CCCN5C[C@H](F)C6)nc4c3F)c12 [Compound 24A, 2-((2S)-4-(7-(8-ethynyl-7-fluoro-3-hydroxynaphth-1-yl)-6,8-difluoro-2-(((2R,7aS)-2-fluorotetrahydro-1H-pyrrolizin-7a(5H)-yl)methoxy)quinazolin-4-yl)-1-(2-fluoroacryloyl)piperazin-2-yl)acetonitrile] here?
**A.** The IC50 was 0.52 nM.

**Q.** And the IC50 [2]?
**A.** The IC50 was 0.25 nM.

**Q.** And the GI50 [3]?
**A.** Its GI50 is 7.6 nM.

**Q.** What about the GI50 [4] of the same compound?
**A.** The GI50 was 5.5 nM.

**Q.** And the half-life [5]?
**A.** Its half-life is 17.1 min.

**Q.** And the microsomal CLint [5]?
**A.** Its microsomal CLint is 81.3 µL/min/mg.

**Q.** What about the CLint scaled [5] of the same compound?
**A.** Its CLint scaled is 73.2 mL/min/kg.

**Q.** What about the GI50 [6] of the same compound?
**A.** The GI50 was 4 nM.

**Q.** And the GI50 [7]?
**A.** Its GI50 is 4 nM.
